The term IC50 denotes the concentration that inhibits the measured activity by half. Lower therefore signals greater potency.

The values below come from US6930130B2, “Citrullimycines, a process for their production and their use as pharmaceuticals” (Aventis Pharma Deutschland GmbH, priority 2000, dated 2005).

SMILES strings stand for the structures.

In the test the test system is human neurotensin receptor proteins expressed in HEK cell membranes. Put plainly: SPA [3H] neurotensin receptor binding assay. As to conditions: displacement of 4 nM [3H]neurotensin, 2 hours, room temperature. The source says:
The Citrullimycines according to the invention show inhibition in the neurotensin receptor binding assay of human neurotensin receptor proteins expressed in HEK cell membranes.
SPA [^3H] Neurotensin Receptor Binding Assay
Compounds with an affinity for the neurotensin receptor will displace the binding of [3H] neurotensin, which results in a diminished radioactive signal. In the SPA method, receptors immobilized directly on PVT WGA (Wheat Germ Agglutinin) coated SPA beads (Amersham Pharmacia) bind the radiolabelled ligand. The ligand-receptor complex is held in close enough proximity to stimulate emission of light by the bead. Any unbound radioligand is too distant from the bead to transfer energy and therefore will not be detected.
The samples were pre-diluted 1:5 with assay buffer (50 mM Tris-HCl buffer with 1 mM EDTA, 0.2 mM Bacitracin, and 0.1% BSA, pH 7.4) in deep well plates. The final dilution in the assay was 1:20. 96-well isoplates from Wallac were used for the screening. […]
On each plate, four wells without samples were used to determine the total receptor-ligand binding and another four wells with 1 μM (L-α, γ-diaminobutyryl) neurotensin were used to determine the nonspecific binding respectively. Inhibition activities are expressed as: […]

The compound `CCC(C)CCC(O)CC(=O)OC(CCC(C)C)CC(=O)NC(CCCNC(N)=O)C(=O)OC(CCC(C)CC)CC(=O)OC(CCC(C)CC)CC(=O)O` (stereo not shown) [Citrullimycine A] had a 50% inhibitory concentration (IC50) of 16 µM. This counts as double-digit micromolar.
